# Laboratory results from patent US4556715A, “Nicotinic acid derivatives” (Kyorin Pharmaceutical Co., Ltd., priority 1980, dated 1985).
# Read-outs that look alike come from different tables or passages of the source.
# System: serum and liver lipid levels in rats
# Assay: Serum and liver lipid levels and relative liver weight in rats (100 mg/kg, 10 days)
# Assay type: in vivo, Male rats of the Wistar strain
# Conditions: for response vs control in vivo at 100 mg/kg: Rattus norvegicus, po; for response vs control in vivo at 100 mg/kg / Relative liver weight, relative to Control (100): in parentheses, Control = (100); for Liver lipid levels Ch / Liver lipid levels PL / Liver lipid levels TG / Relative liver weight / Serum lipid levels Ch / Serum lipid levels PL / Serum lipid levels TG: 100 mg/kg p.o. 10 days, Mean ± S.E. (n = 9)
# Procedure: (2) Male rats of the Wistar strain weighing 160-180 g were fed a stock deit (CE-2, Japan CLEA, Tokyo) and water ad libitum. The present compounds and KCD-232 were suspended, respectively, in a 0.5% of CMC solution and give orally to rats once a day at a dose of 100 mg/kg b.w. for 10 days.
# Control rats were received the 0.5% CMC solution alone. The diet was withdrawn immediately after the last administration of compounds. Animals were sacrificed by decapitation 4 hr after the last administration and blood was collected, clotted and centrifuged to obtain serum. The liver was excised quickly and weighed. Total lipids were extracted from the serum and liver, and the levels of Ch, TG and PL were determined colorimetrically.
# [1] = 240 h, Table 2, read-out: Liver lipid levels PL, relative to Control (100)
# [2] = 240 h, Table 3, read-out: Liver lipid levels PL, relative to Control (100)
# [3] = Table 2, read-out: Liver lipid levels Ch, relative to Control (100)
# [4] = Table 2, read-out: Liver lipid levels TG, relative to Control (100)
# [5] = Table 2, read-out: Serum lipid levels Ch, relative to Control (100)
# [6] = Table 2, read-out: Serum lipid levels PL, relative to Control (100)
# [7] = Table 2, read-out: Serum lipid levels TG, relative to Control (100)
# [8] = Table 3, read-out: Liver lipid levels Ch, relative to Control (100)
# [9] = Table 3, read-out: Liver lipid levels TG, relative to Control (100)
# [10] = Table 3, read-out: Serum lipid levels Ch, relative to Control (100)
# [11] = Table 3, read-out: Serum lipid levels PL, relative to Control (100)
# [12] = Table 3, read-out: Serum lipid levels TG, relative to Control (100)
Relative liver weight (Table 3) [g/100 g b.w.],"Relative liver weight, relative to Control (100) (Table 3)",SMILES,response vs control in vivo at 100 mg/kg [1] [%],response vs control in vivo at 100 mg/kg [2] [%],response vs control in vivo at 100 mg/kg [3] [%],response vs control in vivo at 100 mg/kg [4] [%],response vs control in vivo at 100 mg/kg [5] [%],response vs control in vivo at 100 mg/kg [6] [%],response vs control in vivo at 100 mg/kg [7] [%],response vs control in vivo at 100 mg/kg [8] [%],response vs control in vivo at 100 mg/kg [9] [%],response vs control in vivo at 100 mg/kg [10] [%],response vs control in vivo at 100 mg/kg [11] [%],response vs control in vivo at 100 mg/kg [12] [%],Liver lipid levels Ch (Table 3) [mg/g liver],Liver lipid levels PL (Table 3) [mg/g liver],Liver lipid levels TG (Table 3) [mg/g liver],Serum lipid levels Ch (Table 3) [mg/dL],Serum lipid levels PL (Table 3) [mg/dL],Serum lipid levels TG (Table 3) [mg/dL],also measured
3.91 ± 0.10,103,"O=C(OCCCCc1ccc(OCc2ccc(Cl)cc2)cc1)c1cccnc1 [n1=1, n2=4, 4-[4-Chlorobenzyloxy)phenyl]butyl nicotinate]",101,101,70.1,106,75.4,77,39.5,108,103,76,68.2,29.9,2.51 ± 0.11,36.7 ± 0.9,7.42 ± 0.88,74.2 ± 2.5,106 ± 3.6,37.6 ± 3,"Liver lipid levels Ch (Table 2): 2.13 ± 0.04 mg/g liver; Liver lipid levels PL (Table 2): 38.4 ± 0.7 mg/g liver; Liver lipid levels TG (Table 2): 6.73 ± 0.51 mg/g liver; Relative liver weight (Table 2): 4.44 ± 0.11 g/100 g b.w.; Serum lipid levels Ch (Table 2): 65.4 ± 1.4 mg/dL; Serum lipid levels PL (Table 2): 114 ± 2.5 mg/dL; Serum lipid levels TG (Table 2): 48.9 ± 5.1 mg/dL; Relative liver weight, relative to Control (100) (Table 2): 115"
–,–,"O=C(OCCc1ccc(OCCc2ccc(Cl)cc2)cc1)c1cccnc1 [n1=2, n2=2, 4-(4-Chorophenethyloxy)phenetyl nicotinate]",107,–,79.3,84.2,78.8,78.2,39.1,–,–,–,–,–,–,–,–,–,–,–,"Liver lipid levels Ch (Table 2): 2.41 ± 0.10 mg/g liver; Liver lipid levels PL (Table 2): 40.8 ± 0.3 mg/g liver; Liver lipid levels TG (Table 2): 5.32 ± 0.45 mg/g liver; Relative liver weight (Table 2): 3.97 ± 0.05 g/100 g b.w.; Serum lipid levels Ch (Table 2): 68.3 ± 3.7 mg/dL; Serum lipid levels PL (Table 2): 116 ± 5 mg/dL; Serum lipid levels TG (Table 2): 48.4 ± 4.8 mg/dL; Relative liver weight, relative to Control (100) (Table 2): 103"
3.84 ± 0.10,101,"O=C(OCCCCCCc1ccc(OCCCCCCc2ccc(Cl)cc2)cc1)c1cccnc1 [n1=6, n2=6, 6-{4-[6'-(4-Chlorophenyl)hexyloxy]phenyl}hexyl nicotinate]",–,107,–,–,–,–,–,103,64.3,79.3,64.9,23.7,2.38 ± 0.08,38.7 ± 0.8,4.62 ± 0.15,77.4 ± 3.8,101 ± 3.7,29.8 ± 1.5,–

SMILES,Relative liver weight (Table 3) [g/100 g b.w.],"Relative liver weight, relative to Control (100) (Table 3)",response vs control in vivo at 100 mg/kg [1] [%],response vs control in vivo at 100 mg/kg [2] [%],response vs control in vivo at 100 mg/kg [3] [%],response vs control in vivo at 100 mg/kg [4] [%],response vs control in vivo at 100 mg/kg [5] [%],response vs control in vivo at 100 mg/kg [6] [%],response vs control in vivo at 100 mg/kg [7] [%],response vs control in vivo at 100 mg/kg [8] [%],response vs control in vivo at 100 mg/kg [9] [%],response vs control in vivo at 100 mg/kg [10] [%],response vs control in vivo at 100 mg/kg [11] [%],response vs control in vivo at 100 mg/kg [12] [%],Liver lipid levels Ch (Table 3) [mg/g liver],Liver lipid levels PL (Table 3) [mg/g liver],Liver lipid levels TG (Table 3) [mg/g liver],Serum lipid levels Ch (Table 3) [mg/dL],Serum lipid levels PL (Table 3) [mg/dL],Serum lipid levels TG (Table 3) [mg/dL],also measured
"O=C(OCCc1ccc(OCCCCc2ccc(Cl)cc2)cc1)c1cccnc1 [n1=4, n2=2, 4-[4-(4-Chlorophenyl)butoxy]phenethyl nicotinate]",4.03 ± 0.07,106,–,109,–,–,–,–,–,98.3,79.7,74,67.1,24.9,2.28 ± 0.09,39.6 ± 0.9,5.72 ± 0.40,72.2 ± 1.3,104 ± 3.7,31.3 ± 3.6,–
